From US7427503B2, “Method for transferring material in a cell system” (Eppendorf AG, priority 2000, dated 2008)

How the values were obtained:
[1] = tested on: Jurkat cells; assay: Electroporation of Jurkat cells with and without trehalose in hypo-osmolar working medium; format: cell-based, human; conditions: 100 mOsm
Description: Electroporation of Cells with and without Trehalose in a Hypo-osmolar Working Medium.
A phosphate buffer with 1.15 mM K2HPO4/KH2PO4 buffer, pH 7.2, was used as a pulse medium. KCl at a concentration of 10 mM (α=1.5−1.6 mS/cm) was added as a conducting salt. After this, trehalose at the respective concentration was added to the pulse medium. Osmolarity was adjusted to 100 mOsm by the addition of inositol, so as to obtain a hypo-osmolar solution.
Jurkat cells that are cells of a human T-lymphocytes line were used. 40 μg/ml propidium iodide, which is a membrane-impermeable DNA dye, was added as the material to be transferred.
Pulse application took place after 10 minutes of incubation prior to pulse application, in the pulse medium at room temperature (cell density: 2-3×10^6 cells/ml). Pulse duration was 20 μs.
Electroporation took place in an Eppendorf multiporator. After pulse application, the pores were left to reseal for 10 min at room temperature.
Electropermeabilisation took place at the following trehalose concentrations: 0 mM and 40 mM (α,α-trehalose).
Pulsing takes place at 4° C. or at room temperature. This can be single pulsing; however, multiple pulsing involving up to 3 pulses can at times be advantageous.

[2] = tested on: Jurkat cells; assay: Electroporation of Jurkat cells with and without trehalose in iso-osmolar working medium; format: cell-based, human; conditions: 290 mOsm
Description: Electroporation of Cells with and without Trehalose in an Iso-osmolar Working Medium.
Essentially, the same experimental conditions as in Example 1 applied, except that the osmolarity of the pulse medium was adjusted to iso-osmolar conditions by adding inositol to 290 mOsm.
Again, α,α-trehalose was added in the following concentrations: 0 mM and 40 mM.

SMILES: OC[C@H]1O[C@H](O[C@H]2O[C@H](CO)[C@@H](O)[C@H](O)[C@H]2O)[C@H](O)[C@@H](O)[C@@H]1O [trehalose, α,α-trehalose]
- propidium iodide uptake ([1]; 40 mM trehalose vs 0 mM, 40 μg/ml propidium iodide, FIG. 1): only slightly influenced
- pulse efficiency (product of propidium iodide uptake and survival rate) ([1]; 40 mM trehalose vs control without trehalose, increasing field strength, FIG. 2): significantly above the values of a control sample
- survival rate ([2]; 40 mM trehalose vs 0 mM, above all at high field strength, FIG. 3): untreated cells (0 mM, outline squares) is many times less than in the case of cells treated with 40 mM trehalose
- propidium iodide uptake ([2]; 40 mM trehalose vs 0 mM, FIG. 3): varies less markedly
- pulse efficiency ([2]; 40 mM trehalose, increasing field strength, FIG. 4): gradual increase in the pulse efficiency
